From ChEMBL document CHEMBL3997792, “Identification of the First Selective Activin Receptor-Like Kinase 1 Inhibitor, a Reversible Version of L-783277” (J Med Chem, 2017) come the findings set out here.

Calls of active or inactive are those of the source. The calls are words filed in the database; no cut-off is given here. Bounds are passed on as bounds.

In data set [1] the target is Vascular endothelial growth factor receptor 2 (Homo sapiens, UniProt P35968). Particulars: 1 uM.
Description: Inhibition of human KDR at 1 uM using poly[Glu:Tyr] (4:1) as substrate in presence of [gamma-33P]-ATP by scintillation counting method relative to control
The target in data set [2] is ALK5 (TGF-beta receptor type-1) (Homo sapiens, UniProt P36897). The experiment in a line: Inhibition of human ALK5 at 10 uM using casein as substrate in presence of 200 uM ATP by radiometric kinase assay relative to control. Conditions: human ALK5 kinase (TGF-beta receptor type-1), probe casein.
Chain of ALK5 (TGF-beta receptor type-1) (P36897 whole entry): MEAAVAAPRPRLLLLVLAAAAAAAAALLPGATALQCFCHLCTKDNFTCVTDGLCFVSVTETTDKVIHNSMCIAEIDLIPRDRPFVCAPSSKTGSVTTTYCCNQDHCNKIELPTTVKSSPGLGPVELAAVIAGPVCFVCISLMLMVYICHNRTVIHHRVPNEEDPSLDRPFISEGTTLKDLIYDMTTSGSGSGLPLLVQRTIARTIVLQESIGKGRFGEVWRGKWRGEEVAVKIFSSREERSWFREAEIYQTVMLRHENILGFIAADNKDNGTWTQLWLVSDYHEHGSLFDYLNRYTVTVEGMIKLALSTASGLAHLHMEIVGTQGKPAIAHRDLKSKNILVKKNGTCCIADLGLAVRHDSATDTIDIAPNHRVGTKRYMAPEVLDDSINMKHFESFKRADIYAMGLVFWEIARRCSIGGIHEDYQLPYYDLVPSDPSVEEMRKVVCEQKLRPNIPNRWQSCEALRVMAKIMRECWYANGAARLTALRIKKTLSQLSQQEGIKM
Data set [3] concerns the target T1, TGF-beta receptor type-1 (Mus musculus, UniProt Q64729).
T1 sequence (Q64729 whole entry): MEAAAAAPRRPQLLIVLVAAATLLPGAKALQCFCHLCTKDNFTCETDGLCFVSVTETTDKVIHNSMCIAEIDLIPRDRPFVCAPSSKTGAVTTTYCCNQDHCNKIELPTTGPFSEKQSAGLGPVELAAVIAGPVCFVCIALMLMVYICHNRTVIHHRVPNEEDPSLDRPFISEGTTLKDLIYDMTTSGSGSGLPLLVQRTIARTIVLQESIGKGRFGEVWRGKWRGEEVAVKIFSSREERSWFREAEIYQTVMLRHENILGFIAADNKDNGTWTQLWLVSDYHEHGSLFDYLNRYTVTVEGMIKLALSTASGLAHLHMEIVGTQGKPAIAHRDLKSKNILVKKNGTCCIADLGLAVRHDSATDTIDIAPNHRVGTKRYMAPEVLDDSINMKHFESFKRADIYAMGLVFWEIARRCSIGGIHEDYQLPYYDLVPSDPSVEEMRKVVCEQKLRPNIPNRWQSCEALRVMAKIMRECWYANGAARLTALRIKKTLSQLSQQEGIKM
Kind of data set: Inhibition of ALK5 in mouse C2C12 cells assessed as decrease in TGFbeta1-induced Smad1/5 phosphorylation at 10 uM by Western blot method. It counts as cell-based.

The test system of data set [4] is HUVEC. The experiment in a line: Angiogenic activity in HUVEC assessed as increase in vessel areas at 2 to 50 uM by microfluidic chip based 3D angiogenesis assay. In kind it is functional, cell-based. Particulars: Homo sapiens.
The target in data set [5] is Bone morphogenetic protein receptor type-1B (Homo sapiens, UniProt O00238). The experiment in a line: Inhibition of human ALK6 using casein as substrate in presence of 10 uM ATP by radiometric kinase assay.
Chain of Bone morphogenetic protein receptor type-1B (O00238 whole entry): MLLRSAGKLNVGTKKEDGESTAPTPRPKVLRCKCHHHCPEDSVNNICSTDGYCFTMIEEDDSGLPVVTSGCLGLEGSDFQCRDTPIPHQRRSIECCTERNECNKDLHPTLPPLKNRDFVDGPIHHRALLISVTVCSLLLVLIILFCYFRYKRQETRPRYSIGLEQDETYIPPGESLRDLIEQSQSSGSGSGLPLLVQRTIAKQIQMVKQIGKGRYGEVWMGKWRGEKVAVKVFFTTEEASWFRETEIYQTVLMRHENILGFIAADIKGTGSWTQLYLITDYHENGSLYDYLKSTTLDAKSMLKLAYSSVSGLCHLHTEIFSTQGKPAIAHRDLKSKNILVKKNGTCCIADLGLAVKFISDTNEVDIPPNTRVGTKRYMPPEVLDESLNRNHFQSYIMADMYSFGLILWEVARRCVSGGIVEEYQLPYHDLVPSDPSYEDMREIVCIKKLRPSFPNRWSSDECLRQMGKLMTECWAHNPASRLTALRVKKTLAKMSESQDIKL
Data set [6] has as its system HUVEC. Kind of data set: Angiogenic activity in HUVEC assessed as increase in vascular endothelial tube formation incubated for 6 hrs measured every 3 hrs by matrigel based light microscopic analysis. In kind it is functional, cell-based. Particulars: Homo sapiens.
The target in data set [7] is T2, Activin receptor type-1-like (Mus musculus) (UniProt Q61288).
T2 sequence (whole entry): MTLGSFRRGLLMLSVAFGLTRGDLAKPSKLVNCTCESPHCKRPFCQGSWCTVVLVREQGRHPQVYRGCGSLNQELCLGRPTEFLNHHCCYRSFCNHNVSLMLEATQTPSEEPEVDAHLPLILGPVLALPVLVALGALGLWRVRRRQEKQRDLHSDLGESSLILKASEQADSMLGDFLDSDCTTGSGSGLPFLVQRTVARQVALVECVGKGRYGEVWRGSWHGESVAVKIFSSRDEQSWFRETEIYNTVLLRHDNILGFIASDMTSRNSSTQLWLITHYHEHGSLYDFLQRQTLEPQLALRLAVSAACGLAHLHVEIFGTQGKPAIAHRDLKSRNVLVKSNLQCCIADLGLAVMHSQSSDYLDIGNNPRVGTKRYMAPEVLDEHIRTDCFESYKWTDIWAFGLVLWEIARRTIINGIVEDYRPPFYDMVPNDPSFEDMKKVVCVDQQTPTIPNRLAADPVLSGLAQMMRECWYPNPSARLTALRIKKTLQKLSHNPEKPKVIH
Kind of data set: Inhibition of BMP9-stimulated ALK1 in mouse C2C12 cells assessed as decrease in MEK phosphorylation at 0.1 to 10 uM pretreated for 2 hrs followed by BMP9-stimulation after 30 mins by western blot analysis. It counts as cell-based.

A further data set deals with MDA-MB-231. The experiment in a line: Antiproliferative activity against human MDA-MB-231 cells up to 100 uM after 72 hrs by CellTiter 96 non-radioactive cell proliferation assay. It counts as cell-based. Conditions: mda-mb-231, 72 h.
Data set [8] has as its target T2, Activin receptor type-1-like (Mus musculus). Kind of data set: Inhibition of ALK1 in mouse C2C12 cells assessed as downregulation of BMP9-induced Id1 mRNA levels at 10 uM pretreated for 2 hrs followed by BMP9-stimulation after 30 mins by RT-PCR analysis. In kind it is cell-based.
For a further data set, the target named is Activin receptor type-1 (Homo sapiens, UniProt Q04771). The experiment in a line: Inhibition of human ALK2 using casein as substrate in presence of 10 uM ATP by radiometric kinase assay.
Chain of Activin receptor type-1 (Q04771 whole entry): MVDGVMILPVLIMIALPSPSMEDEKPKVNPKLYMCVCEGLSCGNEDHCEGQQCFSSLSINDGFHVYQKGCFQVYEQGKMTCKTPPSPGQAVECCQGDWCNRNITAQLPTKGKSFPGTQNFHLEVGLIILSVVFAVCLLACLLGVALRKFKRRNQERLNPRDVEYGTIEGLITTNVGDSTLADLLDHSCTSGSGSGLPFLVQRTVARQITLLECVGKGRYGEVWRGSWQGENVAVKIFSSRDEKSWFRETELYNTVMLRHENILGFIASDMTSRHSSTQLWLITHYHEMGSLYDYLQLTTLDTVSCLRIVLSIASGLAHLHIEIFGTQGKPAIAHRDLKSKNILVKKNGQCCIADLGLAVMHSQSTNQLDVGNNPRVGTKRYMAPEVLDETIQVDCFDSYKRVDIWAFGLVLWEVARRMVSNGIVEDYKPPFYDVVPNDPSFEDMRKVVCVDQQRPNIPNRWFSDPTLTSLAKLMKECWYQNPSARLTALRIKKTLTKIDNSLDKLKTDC
The subject of data set [9] is HUVEC. Kind of data set: Angiogenic activity in HUVEC assessed as increase in sprout length at 2 to 50 uM by microfluidic chip based 3D angiogenesis assay. It counts as functional, cell-based. Conditions: Homo sapiens.
The target in data set [10] is T3, Activin receptor type-1-like (Homo sapiens, UniProt P37023). The experiment in a line: Inhibition of human ALK1 using casein as substrate in presence of 10 uM ATP by radiometric kinase assay.
T3 sequence (P37023 whole entry): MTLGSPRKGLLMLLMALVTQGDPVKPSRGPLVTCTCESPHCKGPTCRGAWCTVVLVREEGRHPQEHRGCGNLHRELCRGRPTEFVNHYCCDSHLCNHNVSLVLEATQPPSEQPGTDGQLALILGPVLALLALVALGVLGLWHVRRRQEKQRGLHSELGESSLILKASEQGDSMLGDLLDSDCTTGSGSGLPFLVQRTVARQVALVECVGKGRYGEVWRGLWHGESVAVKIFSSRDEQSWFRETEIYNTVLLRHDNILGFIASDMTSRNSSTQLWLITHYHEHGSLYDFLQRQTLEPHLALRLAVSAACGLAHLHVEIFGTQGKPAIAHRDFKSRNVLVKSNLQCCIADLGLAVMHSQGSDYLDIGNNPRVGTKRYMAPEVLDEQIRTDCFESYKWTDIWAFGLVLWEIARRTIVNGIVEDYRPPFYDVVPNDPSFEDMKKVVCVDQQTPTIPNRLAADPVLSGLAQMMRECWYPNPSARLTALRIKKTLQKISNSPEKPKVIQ
The target of data set [11] is ALK3 (bone morphogenetic protein receptor type-1A) (Homo sapiens, UniProt P36894). The experiment in a line: Inhibition of human ALK3 at 10 uM using casein as substrate in presence of 200 uM ATP by radiometric kinase assay relative to control. Conditions: probe casein.
Chain of ALK3 (bone morphogenetic protein receptor type-1A) (P36894 whole entry): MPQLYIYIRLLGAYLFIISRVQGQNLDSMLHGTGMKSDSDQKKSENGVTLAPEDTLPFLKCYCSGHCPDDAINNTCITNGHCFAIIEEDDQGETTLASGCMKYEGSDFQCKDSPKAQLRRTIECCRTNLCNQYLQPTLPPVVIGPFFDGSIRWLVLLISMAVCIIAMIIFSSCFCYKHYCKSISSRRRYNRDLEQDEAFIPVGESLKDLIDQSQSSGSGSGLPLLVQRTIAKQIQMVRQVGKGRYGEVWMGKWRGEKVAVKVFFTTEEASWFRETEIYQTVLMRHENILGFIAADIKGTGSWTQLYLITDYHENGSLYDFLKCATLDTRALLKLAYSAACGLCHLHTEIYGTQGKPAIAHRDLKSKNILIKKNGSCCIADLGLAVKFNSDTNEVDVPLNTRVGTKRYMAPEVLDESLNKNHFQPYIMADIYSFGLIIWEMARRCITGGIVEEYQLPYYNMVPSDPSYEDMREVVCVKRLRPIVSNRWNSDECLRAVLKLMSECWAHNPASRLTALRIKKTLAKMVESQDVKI
Data set [12] deals with T2, Activin receptor type-1-like (Mus musculus). The experiment in a line: Inhibition of ALK1 in mouse C2C12 cells assessed as downregulation of BMP9-induced Id1 protein levels at 10 uM pretreated for 2 hrs followed by BMP9-stimulation after 30 mins by western blot analysis. It counts as cell-based.
Data set [13] deals with T3, Activin receptor type-1-like. Kind of data set: Inhibition of human ALK1 using casein as substrate in presence of 200 uM ATP by radiometric kinase assay.
In data set [14] the target is Vascular endothelial growth factor receptor 3 (Homo sapiens, UniProt P35916). Kind of data set: Inhibition of human FLT4 using poly[Glu:Tyr] (4:1) as substrate in presence of [gamma-33P]-ATP by scintillation counting method.
Chain of Vascular endothelial growth factor receptor 3 (P35916 whole entry): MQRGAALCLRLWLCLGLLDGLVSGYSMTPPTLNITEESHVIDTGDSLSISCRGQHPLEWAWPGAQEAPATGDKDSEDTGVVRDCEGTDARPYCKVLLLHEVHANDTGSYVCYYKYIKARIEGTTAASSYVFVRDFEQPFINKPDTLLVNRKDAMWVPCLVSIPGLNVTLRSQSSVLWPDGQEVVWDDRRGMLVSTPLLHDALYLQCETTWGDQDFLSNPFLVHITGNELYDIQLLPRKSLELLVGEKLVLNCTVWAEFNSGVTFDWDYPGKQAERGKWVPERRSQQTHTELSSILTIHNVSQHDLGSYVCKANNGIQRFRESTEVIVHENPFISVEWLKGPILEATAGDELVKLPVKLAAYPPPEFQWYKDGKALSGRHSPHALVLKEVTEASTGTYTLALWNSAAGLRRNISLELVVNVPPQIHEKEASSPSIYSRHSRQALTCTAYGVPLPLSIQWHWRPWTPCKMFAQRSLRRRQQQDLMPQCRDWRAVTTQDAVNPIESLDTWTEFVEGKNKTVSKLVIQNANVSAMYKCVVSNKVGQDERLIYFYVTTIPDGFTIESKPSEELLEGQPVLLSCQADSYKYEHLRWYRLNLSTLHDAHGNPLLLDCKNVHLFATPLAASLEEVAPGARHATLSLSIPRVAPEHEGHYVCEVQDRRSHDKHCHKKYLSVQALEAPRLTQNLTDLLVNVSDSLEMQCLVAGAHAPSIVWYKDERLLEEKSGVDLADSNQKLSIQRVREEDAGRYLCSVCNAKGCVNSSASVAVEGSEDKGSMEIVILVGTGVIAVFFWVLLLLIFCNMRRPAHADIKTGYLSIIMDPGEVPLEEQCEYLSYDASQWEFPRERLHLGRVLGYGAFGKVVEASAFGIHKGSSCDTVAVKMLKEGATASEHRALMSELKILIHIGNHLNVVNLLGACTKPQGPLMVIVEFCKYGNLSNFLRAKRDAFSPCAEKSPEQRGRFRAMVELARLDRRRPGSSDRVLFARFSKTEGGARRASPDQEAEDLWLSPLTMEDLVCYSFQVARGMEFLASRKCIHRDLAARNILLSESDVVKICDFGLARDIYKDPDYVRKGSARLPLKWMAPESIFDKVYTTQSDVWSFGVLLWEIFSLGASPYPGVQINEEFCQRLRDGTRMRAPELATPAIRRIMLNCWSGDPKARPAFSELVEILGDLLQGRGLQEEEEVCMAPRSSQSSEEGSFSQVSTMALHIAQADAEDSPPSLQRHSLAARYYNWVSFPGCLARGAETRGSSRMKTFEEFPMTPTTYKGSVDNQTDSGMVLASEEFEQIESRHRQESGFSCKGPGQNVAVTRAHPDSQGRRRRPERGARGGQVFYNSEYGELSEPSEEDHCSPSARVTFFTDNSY
Data set [15] deals with Bone morphogenetic protein receptor type-1A (Homo sapiens, UniProt P36894). Kind of data set: Inhibition of human ALK3 using casein as substrate in presence of 10 uM ATP by radiometric kinase assay.
Chain of Bone morphogenetic protein receptor type-1A (P36894 whole entry): as the sequence (P36894 whole entry) above
For data set [16], the system named is HUVEC. The experiment in a line: Angiogenic activity in HUVEC assessed as increase in angiogenic sprouting at 2 to 50 uM by microfluidic chip based 3D angiogenesis assay. It counts as functional, cell-based. Conditions: Homo sapiens.
A further data set deals with Activin receptor type-1B (Homo sapiens, UniProt P36896). The experiment in a line: Inhibition of human ALK4 using casein as substrate in presence of 10 uM ATP by radiometric kinase assay.
Chain of Activin receptor type-1B (P36896 whole entry): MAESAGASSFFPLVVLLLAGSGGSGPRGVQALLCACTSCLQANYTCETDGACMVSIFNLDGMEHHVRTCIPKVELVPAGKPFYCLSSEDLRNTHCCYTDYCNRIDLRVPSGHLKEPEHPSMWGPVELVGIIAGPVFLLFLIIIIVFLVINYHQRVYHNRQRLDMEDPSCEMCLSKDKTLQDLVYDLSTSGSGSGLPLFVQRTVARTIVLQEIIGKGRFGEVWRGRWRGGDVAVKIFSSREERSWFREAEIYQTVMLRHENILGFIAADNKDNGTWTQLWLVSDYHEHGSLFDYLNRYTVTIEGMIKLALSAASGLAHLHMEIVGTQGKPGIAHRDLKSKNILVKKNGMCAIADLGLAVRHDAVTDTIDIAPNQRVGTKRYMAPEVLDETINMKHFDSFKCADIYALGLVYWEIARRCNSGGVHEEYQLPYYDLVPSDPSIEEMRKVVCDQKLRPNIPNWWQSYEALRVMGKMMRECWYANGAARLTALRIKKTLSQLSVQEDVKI
The target in data set [17] is T2, Activin receptor type-1-like (Mus musculus). Kind of data set: Inhibition of BMP9-stimulated ALK1 in mouse C2C12 cells assessed as decrease in p38 phosphorylation at 0.1 to 10 uM pretreated for 2 hrs followed by BMP9-stimulation after 30 mins by western blot analysis. In kind it is cell-based.
For data set [18] the target is unchanged. The experiment in a line: Inhibition of BMP9-stimulated ALK1 in mouse C2C12 cells assessed as decrease in ERK1/2 phosphorylation at 0.1 to 10 uM pretreated for 2 hrs followed by BMP9-stimulation after 30 mins by western blot analysis. It counts as cell-based.
For data set [19], the target named is T1, TGF-beta receptor type-1. The experiment in a line: Inhibition of ALK5 in mouse C2C12 cells assessed as decrease in TGFbeta1-induced Smad2/3 phosphorylation at 0.1 to 10 uM by Western blot method. In kind it is cell-based.
The target of data set [20] is T3, Activin receptor type-1-like. Conditions: 1 uM.
Description: Inhibition of ALK1 in human A375 cells assessed as decrease in MEK1/2 phosphorylation at 1 uM by western blot analysis

As for `COc1cc(O)c2c(c1)CCC[C@H](O)[C@H](O)C(=O)CCC[C@H](C)OC2=O`, in data set [1], the inhibition was > 80%. Moreover, the inhibition at 10 µM in data set [2] and in [11] was < 40% throughout. Besides, the “inhibition (INH)” value at TGF-beta receptor type-1 [3] is “Active”; on TGF-beta receptor type-1 [19] it was “Not Active”. For the same compound, the outcome in the data set on HUVEC [4], in the data set with HUVEC [9] and in the data set with HUVEC [16] was Active. Further, the IC50 was 727 nM in [5]; 217 nM on Activin receptor type-1; 62 nM in data set [10]; 1210 nM in [13]; 114 nM in data set [14]; 6270 nM in data set [15]. In addition, on Activin receptor type-1B, the IC50 turned out to be 2760 nM. For the same compound, the values for the Activity entry with HUVEC [6] and in the data set with MDA-MB-231 were “Dose-dependent effect” and “Non-Toxic”, respectively. Besides, the inhibition result in data set [7], in data set [17] and in data set [18] was “inactive” in each case. Further, the inhibition result in data set [8], in [12] and in data set [20] was “Active” throughout.
